Laboratory results from BindingDB's records for doi:10.3109/14756366.2011.643304 (Umeå University, 2013).

Target: T1, Fatty-acid amide hydrolase 1 [30-579] (Rattus norvegicus, UniProt P97612)
T1 construct: 30-579
T1 sequence (P97612 whole entry): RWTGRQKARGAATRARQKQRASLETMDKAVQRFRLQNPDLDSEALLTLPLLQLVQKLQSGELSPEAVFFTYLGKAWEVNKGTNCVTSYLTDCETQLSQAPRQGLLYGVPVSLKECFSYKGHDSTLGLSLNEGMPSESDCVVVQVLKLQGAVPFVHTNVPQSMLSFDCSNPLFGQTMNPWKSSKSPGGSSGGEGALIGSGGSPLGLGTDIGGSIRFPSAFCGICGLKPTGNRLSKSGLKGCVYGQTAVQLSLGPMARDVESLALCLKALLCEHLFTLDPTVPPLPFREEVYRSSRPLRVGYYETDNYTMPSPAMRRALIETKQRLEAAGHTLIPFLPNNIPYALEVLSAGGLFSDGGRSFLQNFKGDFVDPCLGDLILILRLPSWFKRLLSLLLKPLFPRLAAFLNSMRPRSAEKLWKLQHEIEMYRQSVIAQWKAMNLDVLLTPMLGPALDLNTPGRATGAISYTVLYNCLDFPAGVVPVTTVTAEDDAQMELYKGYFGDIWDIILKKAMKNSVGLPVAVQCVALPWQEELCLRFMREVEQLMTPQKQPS
Assay: FAAH Assay
Settings: pH 7; 4 °C

SMILES | IC50 [µM]
CC(C)Cc1ccc(C(C)C(=O)NCC(=O)NCc2ccccn2)cc1 (configuration not stated) [2-(4-Isobutylphenyl)-N-(2-oxo-2-(pyridin-2-ylmethylamino)ethyl)propanamide (12)] | 90
CC(C)Cc1ccc(C(C)C(=O)NCC(=O)NCc2cccnc2)cc1 (configuration not stated) [2-(4-Isobutylphenyl)-N-(2-oxo-2-(pyridin-3-ylmethylamino)ethyl)propanamide (13)] | 37
Cc1cccnc1OC(=O)C(C)c1ccc(CC(C)C)cc1 (configuration not stated) [3-Methylpyridin-2-yl 2-(4-isobutylphenyl)propanoate (3)] | 115
Cc1cccc(NC(=O)CNC(=O)C(C)c2ccc(CC(C)C)cc2)n1 (configuration not stated) [2-(4-Isobutylphenyl)-N-(2-(6-methylpyridin-2-ylamino)-2-oxoethyl)propanamide (10)] | 150

The next compounds have a lower IC50 than those just listed; values first:

IC50 [µM] | SMILES
9.3 | Cc1cccnc1NC(=O)CCNC(=O)C(C)c1ccc(CC(C)C)cc1 (configuration not stated) [2-(4-Isobutylphenyl)-N-(3-(3-methylpyridin-2-ylamino)-3-oxopropyl)propanamide (11)]
0.65 | Cc1cccnc1NC(=O)C(C)c1ccc(CC(C)C)cc1 (configuration not stated) [2-(4-isobutylphenyl)-N-(3-methylpyridin-2-yl)propanamide]
1.5 | CC(=O)Nc1ccc(OC(=O)CNC(=O)C(C)c2ccc(CC(C)C)cc2)cc1 (configuration not stated) [4-Acetamidophenyl 2-(2-(4-isobutylphenyl)propanamido)acetate (8)]
